Measured values: US7994127B2, “Treatment of rett syndrome” (Massachusetts Institute of Technology, priority 2007, dated 2011)

Legend:
MeCP2−/y mice = test: Survival and disease progression (Kaplan-Meier); format: in vivo, mouse
Description: A. (1-3) IGF-1 reduces the frequency of bradycardia in MeCP2 null mice. Pooled heart rate distributions observed across mice from different treatments, in beats per minute (bpm). The Y axis depicts the percent of observations within an experimental group that exceed a given bpm value (X axis). Comparisons are between 8 week old animals (WT or KO), some of which received (1-3)IGF-1 treatment for 6 weeks (KO-T). The KO distribution (pink) was left-shifted compared to the wild-type distribution (black), indicating a significant reduction in the distribution of heart rates. […] B. (1-3)IGF-1 treatment improves locomotor function in MeCP2 null mice. Baseline nocturnal activity was measured by placing animals in cages equipped with a movement detector (infrared beam). […] “N”=number of animals per group. C. (1-3)IGF-1 treated MeCP2 KO mice have longer life expectancy than vehicle treated controls. Kaplan-Meier survival curves for MeCP2-/y mice treated with vehicle (KO, red line) or (1-3)IGF-1 (KO-T, green line). […] MeCP2-/y mice were given daily IP injections of (1-3)IGF-1 (0.01 mg/g body weight/day) every day from 2 weeks of age onward. “n” is the number of mice per experimental group. (1-3)IGF-1 treatment: For the survival measurements, the nocturnal activity analysis and the immunoblot analysis, (1-3) IGF-1 (Bachem Biosciences # H22468) was administered daily via intra-peritoneal injections (0.01 mg/g body weight, vehicle=saline, 0.01% BSA). The treatment was started at P15 and maintained throughout the course of the experiments. For intracellular physiology experiments, the mice were injected daily (0.01 mg/g body weight, vehicle=saline, 0.01% BSA) for 2 weeks, from P15 to P28-P32 when they were used for acute slice preparation. For optical imaging experiments, mice were injected with (1-3) IGF-1 (0.02 mg/g body weight, vehicle=saline, 0.01% BSA) daily from the day of the lid suture to the day of imaging. Slice physiology preparation: Coronal sections (300 μm thick) at or near sensorimotor cortex were cut in <4° C. ACSF using a Vibratome. Slices were incubated at 37° C. for 20 minutes after slicing, and at room temperature for the remainder of the experiment. Slices were transferred to a Warner chamber and recordings were taken from visually identified pyramidal neurons located in layer 5. […] Cells were visualized with an Achroplan 40× water-immersion lens with infrared-DIC optics (Zeiss) and detected with an infrared camera (Hamamatsu) projecting to a video monitor. […] Then in current clamp 10 pulses (500 ms, 40-140 pA at 10 pA increments), were applied to quantify evoked firing rates and cellular excitability. […]

synaptic transmission = test: Synaptic transmission during direct application of the molecules; format: cell-based, mouse; conditions: direct application of the molecule
Description: rhIGF1 produced a similar improvement as (1-3)IGF-1 in all maturational signatures measured, including (A) synaptic transmission levels, and (B) circuit stability (by preventing ocular dominance plasticity) in P60 MeCP2 KO mice.
The above data focused on the (1-3)IGF-1 fragment of IGF1 to promote IGF1 signaling. We also have tested the effect of the full-length IGF1 peptide already approved for pediatric administration in human patients (for short stature indications). We have verified a correspondence in the effects of (1-3)IGF-1 and recombinant human IGF1 (rhIGF1).

[1] = tested on: neurons in the CA3 region of the hippocampus; test: Neuron soma size in hippocampus; format: in vivo, mouse
Method: We also measured the effect of (1-3)IGF1 treatment on neuron soma size in hippocampus. Mice were treated with (1-3)IGF1 as described above for locomotor activity.

In the case of `NCC(=O)N1CCC[C@H]1C(=O)N[C@@H](CCC(=O)O)C(=O)O` [(1-3)IGF-1, glycyl-L-prolyl-L-glutamic acid], the “life expectancy, Kaplan-Meier survival curves (FIG. 4C)” value (MeCP2−/y mice; KO-T vs vehicle treated littermates, P=0.54*10^−7, log rank test) is reported as “significantly longer life expectancy”, the “increase in life expectancy” value (MeCP2−/y mice; MeCP2−/y mice treated vs MeCP2 KO littermates, 0.01 mg/g body weight/day IP from 2 weeks of age) is reported as roughly 50% and the 0.5 probability survival (MeCP2−/y mice; MeCP2−/y mice treated, untreated KO ~60 days) is reported as 90 days. The “age at which symptoms develop” value (MeCP2−/y mice; treated MeCP2 knockout mice vs controls) was “at the same age as controls”, the “synaptic activity / synaptic transmission levels (FIG. 9A)” value (synaptic transmission) was “striking enhancements of synaptic activity” and the “average soma size (cell perimeter, FIG. 7)” value ([1]; MeCP2 KO animals, treated as for locomotor activity) was “increased average soma size in KO animals”. The “size of cell bodies” value ([1]; as a result of the knockout or treatment (Discussion)) was “no change was observed” and the “soma size (cell perimeter, FIG. 7)” value ([1]; wild type animals treated) was “had no effect on soma size in wild type animals”.
